Reference: patent US8889704B2 (Array BioPharma Inc., priority 2011, dated 2014)
Where a name gives a salt, the structure may show the parent alone.

Tests used:
Assay type in all cases: biochemical
[1] = target: PIM-1 (Homo sapiens, UniProt P11309); test: Enzyme PIM-1 Assay ([33P]ATP incorporation into PIM2tide, filter plate); conditions: averaged IC50; 35 μM ATP, 7.5 μM PIM2tide, 0.25 nM PIM-1, 60 min at 22° C.
Summary of the method: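 Radiometric assay: 0.25 nM PIM-1 phosphorylates 7.5 μM PIM2tide with 35 μM [γ-33P]ATP in 20 mM MOPS pH 7.4, 10 mM MgCl2, 1 mM DTT, 0.005% Tween-20, 60 min at 22 °C. Product captured on P81 filters, scintillation counted; 10-point 3-fold curve from 10 μM top, 2% DMSO, IC50 by 4-parameter logistic fit of POC.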

[2] = target: T1, GST-tagged recombinant full-length human Pim-2 (Homo sapiens, UniProt Q9P1W9); test: PIM-2 Assay (as Example A); conditions: averaged IC50; 4 μM ATP, 1.0 μM PIM2tide, 1.5 nM Pim-2
T1 construct: GST-tagged recombinant full-length human Pim-2; GST
T1 sequence (Q9P1W9 whole entry): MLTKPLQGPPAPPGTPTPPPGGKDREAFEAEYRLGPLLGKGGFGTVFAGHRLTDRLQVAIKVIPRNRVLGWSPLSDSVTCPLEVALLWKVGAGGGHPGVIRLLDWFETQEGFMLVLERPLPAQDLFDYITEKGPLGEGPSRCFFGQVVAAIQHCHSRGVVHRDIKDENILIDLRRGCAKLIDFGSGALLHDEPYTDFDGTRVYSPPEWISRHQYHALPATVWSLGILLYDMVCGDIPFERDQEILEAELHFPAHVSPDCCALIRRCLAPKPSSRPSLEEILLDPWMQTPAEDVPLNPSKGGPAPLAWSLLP
Summary of the method: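 Radiometric filter-binding assay: GST-tagged full-length human Pim-2 (1.5 nM) phosphorylates 1.0 μM PIM2tide with 4 μM [γ-33P]ATP for 60 min at 22 °C in pH 7.4 MOPS buffer, 2% DMSO. 10-point 3-fold dilutions from 10 μM top dose; IC50 from 4-parameter fit of percent of control.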

[3] = target: recombinant rat PIM-3 (Rattus norvegicus, UniProt O70444); test: PIM-3 Assay (as Example A); conditions: averaged IC50; 30 μM ATP, 3.75 μM PIM2tide, 0.5 nM PIM-3
Summary of the method: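 Recombinant rat PIM-3 (0.5 nM) with 3.75 μM PIM2tide and 30 μM [γ-33P]ATP in MOPS pH 7.4 buffer, 60 min at 22 °C; labelled peptide captured on phosphocellulose filters and counted by scintillation. 10-point curve (top dose 10 μM, 2% DMSO); IC50 from 4-parameter fit of percent of control.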

PIM-1, sequence (P11309 whole entry, species assumed): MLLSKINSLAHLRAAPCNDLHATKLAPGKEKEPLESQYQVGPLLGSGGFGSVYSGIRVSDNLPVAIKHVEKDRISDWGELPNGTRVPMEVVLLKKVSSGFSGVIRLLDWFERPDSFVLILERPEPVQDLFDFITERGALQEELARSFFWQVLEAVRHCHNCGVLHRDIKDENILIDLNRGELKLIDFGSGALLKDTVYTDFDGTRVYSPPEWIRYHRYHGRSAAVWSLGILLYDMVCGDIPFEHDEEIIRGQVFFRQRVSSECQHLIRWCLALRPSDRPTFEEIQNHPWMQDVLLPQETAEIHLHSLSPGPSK

Structure (SMILES)	IC50 [1]	IC50 [2]	IC50 [3]
N[C@H]1CCN([C@H](c2ccc3nnc(-c4ccc5cc(F)cc(O)c5n4)n3c2)C(F)(F)F)C1 [Example 163, 2-(6-((R)-1-((S)-3-aminopyrrolidin-1-yl)-2,2,2-trifluoroethyl)-[1,2,4]triazolo[4,3-a]pyridin-3-yl)-6-fluoroquinolin-8-ol hydrochloride]	0.3 nM	> 100 nM	10 nM
CC(C)(O)COc1ccc2ccc(-c3nnc4ccc([C@H](N5CC[C@](C)(N)C5)C(F)(F)F)cn34)nc2c1 [Example 297, 1-(2-(6-((S)-1-((S)-3-amino-3-methylpyrrolidin-1-yl)-2,2,2-trifluoroethyl)-[1,2,4]triazolo[4,3-a]pyridin-3-yl)quinolin-7-yloxy)-2-methylpropan-2-ol dihydrochloride]	0.18 nM	20 nM	0.2 nM
CCOc1cc2nc(-c3nnc4ccc([C@@H](N5CC[C@@H](CN)C5)C(F)(F)F)cn34)ccc2cc1F [Example 279, ((S)-1-((R)-1-(3-(7-ethoxy-6-fluoroquinolin-2-yl)-[1,2,4]triazolo[4,3-a]pyridin-6-yl)-2,2,2-trifluoroethyl)pyrrolidin-3-yl)methanamine hydrochloride]	0.96 nM	431 nM	3.1 nM
CC1(NC(=O)c2ccc3ccc(-c4nnc5ccc([C@@H](N6CC[C@@H](N)C6)C(F)(F)F)cn45)nc3c2)CC1 [Example 55, 2-(6-((R)-1-((R)-3-aminopyrrolidin-1-yl)-2,2,2-trifluoroethyl)-[1,2,4]triazolo[4,3-a]pyridin-3-yl)-N-(1-methylcyclopropyl)quinoline-7-carboxamide dihydrochloride]	0.25 nM	35 nM	0.3 nM
CC(C)Oc1cccc2ccc(-c3nnc4ccc([C@@H](N5CC[C@@](N)(CF)C5)C(F)(F)F)cn34)nc12 (single isomer, unassigned) [Example 154, dihydrochloride]	0.58 nM	> 100 nM	4.2 nM
CC(C)(C)C(=O)Nc1ccc2ccc(-c3nnc4ccc([C@@H](N5CC[C@H](O)C5)C(F)(F)F)cn34)nc2c1 [Example 107, N-(2-(6-((R)-2,2,2-trifluoro-1-((S)-3-hydroxypyrrolidin-1-yl)ethyl)-[1,2,4]triazolo[4,3-a]pyridin-3-yl)quinolin-7-yl)pivalamide]	0.48 nM	> 100 nM	0.9 nM
COC[C@@H](C)Oc1cccc2ccc(-c3nnc4ccc([C@@H](N5CC[C@H](N(C)C)C5)C(F)(F)F)cn34)nc12 [Example 303, (S)—N,N-dimethyl-1-((R)-2,2,2-trifluoro-1-(3-(8-((R)-1-methoxypropan-2-yloxy)quinolin-2-yl)-[1,2,4]triazolo[4,3-a]pyridin-6-yl)ethyl)pyrrolidin-3-amine dihydrochloride]	1.33 nM	242 nM	5.85 nM
CCOc1ccc2ccc(-c3nnc4ccc([C@H](N5CC[C@H](N)C5)C(F)(F)F)cn34)nc2c1 [Example 256, (S)-1-((S)-1-(3-(7-ethoxyquinolin-2-yl)-[1,2,4]triazolo[4,3-a]pyridin-6-yl)-2,2,2-trifluoroethyl)pyrrolidin-3-amine dihydrochloride]	0.58 nM	199 nM	1 nM
CC(C)(C)c1cccc2ccc(-c3nnc4ccc([C@@H](N5CC[C@](N)(CO)C5)C(F)(F)F)cn34)nc12 [Example 189, ((R)-3-amino-1-((R)-1-(3-(8-tert-butylquinolin-2-yl)-[1,2,4]triazolo[4,3-a]pyridin-6-yl)-2,2,2-trifluoroethyl)pyrrolidin-3-yl)methanol dihydrochloride]	0.57 nM	85 nM	1.5 nM
CCOc1ccc2ccc(-c3nnc4ccc([C@@H](N5CCC6(CCCN6)C5)C(F)(F)F)cn34)nc2c1 (stereo partly drawn) [Example 257, 7-ethoxy-2-(6-((1R)-2,2,2-trifluoro-1-(1,7-diazaspiro[4.4]nonan-7-yl)ethyl)-[1,2,4]triazolo[4,3-a]pyridin-3-yl)quinoline dihydrochloride]	1.45 nM	724 nM	9 nM
CC(C)Oc1cccc2ccc(-c3nnc4ccc([C@@H](N5CC[C@@](C)(N)C5)C(F)(F)F)cn34)nc12 [Example 91, (R)-3-methyl-1-((R)-2,2,2-trifluoro-1-(3-(8-isopropoxyquinolin-2-yl)-[1,2,4]triazolo[4,3-a]pyridin-6-yl)ethyl)pyrrolidin-3-amine dihydrochloride]	0.25 nM	> 100 nM	2.6 nM

Compounds with a lower IC50 [1], results first:

IC50 [1]	IC50 [2]	IC50 [3]	Structure (SMILES)
0.11 nM	22 nM	0.8 nM	CCc1cccc2ccc(-c3nnc4ccc([C@@H](N5CC[C@H](N)C5)C(F)(F)F)cn34)nc12 [Example 37, (S)-1-((R)-1-(3-(8-ethylquinolin-2-yl)-[1,2,4]triazolo[4,3-a]pyridin-6-yl)-2,2,2-trifluoroethyl)pyrrolidin-3-amine dihydrochloride]
0.13 nM	34 nM	0.3 nM	CC(C)Oc1cccc2ccc(-c3nnc4ccc([C@@H](N5C[C@@H](N)[C@H](O)C5)C(F)(F)F)cn34)nc12 [Example 146, (3R,4R)-4-amino-1-((R)-2,2,2-trifluoro-1-(3-(8-isopropoxyquinolin-2-yl)-[1,2,4]triazolo[4,3-a]pyridin-6-yl)ethyl)pyrrolidin-3-ol dihydrochloride]
0.12 nM	21 nM	1.4 nM	COCC1(c2cccc3ccc(-c4nnc5ccc([C@@H](N6CC[C@H](N)C6)C(F)(F)F)cn45)nc23)CC1 [Example 112, (S)-1-((R)-2,2,2-trifluoro-1-(3-(8-(1-(methoxymethyl)cyclopropyl)quinolin-2-yl)-[1,2,4]triazolo[4,3-a]pyridin-6-yl)ethyl)pyrrolidin-3-amine dihydrochloride]
0.09 nM	51 nM	3.8 nM	N[C@@H]1CCN([C@H](c2ccc3nnc(-c4ccc5cccc(C6CC6)c5n4)n3c2)C(F)(F)F)C1 [Example 47, (R)-1-((R)-1-(3-(8-cyclopropylquinolin-2-yl)-[1,2,4]triazolo[4,3-a]pyridin-6-yl)-2,2,2-trifluoroethyl)pyrrolidin-3-amine dihydrochloride]
0.09 nM	44 nM	0.5 nM	CC(C)Oc1ccc2ccc(-c3nnc4ccc([C@@H](N5CC[C@H](N)C5)C(F)(F)F)cn34)nc2c1 [Example 142, (S)-1-((R)-2,2,2-trifluoro-1-(3-(7-isopropoxyquinolin-2-yl)-[1,2,4]triazolo[4,3-a]pyridin-6-yl)ethyl)pyrrolidin-3-amine dihydrochloride]
0.14 nM	72 nM	0.3 nM	CO[C@@H](C)COc1cccc2ccc(-c3nnc4ccc([C@@H](N5CC[C@H](N)C5)C(F)(F)F)cn34)nc12 [Example 212, (S)-1-((R)-2,2,2-trifluoro-1-(3-(8-((S)-2-methoxypropoxy)quinolin-2-yl)-[1,2,4]triazolo[4,3-a]pyridin-6-yl)ethyl)pyrrolidin-3-amine dihydrochloride]
0.09 nM	41 nM	6.7 nM	CC(C)(C)c1cccc2ccc(-c3nnc4ccc([C@@H](N5C[C@@H](O)[C@H](O)C5)C(F)(F)F)cn34)nc12 [Example 74, (3R,4R)-1-((R)-1-(3-(8-tert-butylquinolin-2-yl)-[1,2,4]triazolo[4,3-a]pyridin-6-yl)-2,2,2-trifluoroethyl)pyrrolidine-3,4-diol]
